Assay results reported in patent US12441730B2, “PRMT5 inhibitors” (Merck Sharp & Dohme LLC, priority 2019, dated 2025).
Where two headings read alike, the source gives them in different places.

Legend:
[1] = system: symmetric dimethylation of arginine (SDMA) of PRMT5 substrates in MCF-7 cells; assay: PRMT5 Cell Target Engagement (TE) Assay; assay type: cell-based; settings: 3 days treatment, SDMA high content imaging
Description: PRMT5 Cell Target Engagement (TE) Assay
The PRMT5 TE assay is a biomarker assay for identifying compounds that inhibit symmetric dimethylation of arginine (SDMA) of PRMT5 substrates. The following substrates have been reported for PRMT5: histone H2A and H4 R3, Histone H3 R2, Histone H3 R8, spliceosome Sm proteins, ribosomal protein RPS10, p53, FEN1, nucleoplasmin, nucleolin, EGFR and EBNA. The assay focuses on detecting symmetrically dimethylated nuclear proteins using high content imaging technology. Detection of the expression of symmetrically dimethylated nuclear proteins is through a mixture of primary rabbit monoclonal antibodies to SDMA (CST 13222), which in turn recognized by an Alexafluor 488 dye-conjugated anti-rabbit IgG secondary antibody. The IN Cell Analyzer 2200 or Opera-Phenix measures nuclear Alexafluor 488 fluorescent dye intensity that is directly related to the level of expression of symmetrically dimethylated nuclear proteins at the single cell level. Nuclear AF488 dye intensities are compared to the mean value for DMSO treated cells (MIN) to report percent of inhibition for each compound-treated well.
In this assay, the cell potency (EC50) of each compound was determined from a ten point (1:3 serial dilution; top compound concentration of 10000 nM) titration curve using the following outlined procedure. Each well of a BD falcon collagen coated black/clear bottom 384-well plate was seeded with 4000 MCF-7 cells in 30 μl media and allowed to attach for 5 h. Media is ATCC-formulated Eagle's Minimum Essential Medium, Catalog No. 30-2003. To make the complete growth medium, the following components were added to the base medium: 0.01 mg/mL human recombinant insulin; fetal bovine serum to a final concentration of 10%. Additional 30 μl of media containing 2× compounds were added to each well. Cells were treated for 3 days in 37° C. CO2 incubator. On day 3, cells were fixed with Cytofix, permeabilized with 0.4% Triton-X-100/Cytofix, and washed with D-PBS without Ca/Mg. Cells were blocked with Licor Odessey blocking reagent for 1 h at room temperature, followed by incubation with anti-SDMA (1:1000) antibody at 4° C. overnight. 1° antibody was removed, followed by three washings with DPBS without Ca/Mg and 0.05% Tween20. Hoechst (5 μg/mL), Cell Mask deep stain (1:2000) and Alexa488-conjugated goat anti-rabbit IgG (2 μg/mL) was added for 1 h at room temperature. A final washing step (three washes) was performed before sealing plate for imaging on In Cell Analyzer 2200 or Opera-Phenix. Images from analyzer were uploaded to Columbus (at WP or BOS) for image analysis. IC50 values were determined by 4 parameters robust fit of percent fluorescence units vs. (Log10) compound concentrations.

[2] = molecular target: T1, Full-length (FL)-PRMT5-MEP50 enzyme complex (Homo sapiens, UniProt O14744); assay: PRMT5-MEP50 Enzyme Methylation Assay (Version A); assay type: biochemical
T1 construct: Full-length (FL)-PRMT5-MEP50 enzyme complex (recombinant proteins from baculovirus-transfected Sf21 cells: FL-PRMT5; MW=73837 kDa and FL-MEP50; MW=38614); made in house; host or cells: baculovirus-transfected Sf21 cells
Method: PRMT5-MEP50 Enzyme Methylation Assay (Version A)
PRMT5-MEP50 biochemical assay is a direct measurement of the methylation activity of the enzyme complex on a short peptide substrate derived from the N-terminus of H4 histone. Methylation experiment was performed with recombinant PRMT5-MEP50 protein complex. The assessment of inhibitory effect of small molecules was measured by the effectiveness of the compounds to inhibit this reaction (EC50).
In this assay, the potency (EC50) of each compound was determined from a twenty-point (1:2 serial dilution; top compound concentration of 100000 nM) titration curve using the following outlined procedure. To each well of a white ProxiPlus 384 well-plate, 100 nL of compound (1% DMSO in final assay volume of 10 μL) was dispensed, followed by the addition of 8 μL of 1× assay buffer (50 mM Bicine pH 8.0, 1 mM DTT, 0.004% Tween20, 0.01% BSA) containing 1.25 nM of Full-length (FL)-PRMT5-MEP50 enzyme complex (recombinant proteins from baculovirus-transfected Sf21 cells: FL-PRMT5; MW=[…] and FL-MEP50; MW=38614) and 1 μL of 150 μM S-(5′-Adenosyl)-L-Methionine Chloride (SAM). A plate were sealed and placed in a 37° C. humidified chamber for a 60 minutes pre-incubation with compound. Subsequently, each reaction was initiated by the addition of 1 μL 1× assay buffer containing 750 nM biotinylated H4R3(Me1) peptide. The final reaction in each well of 10 μL consists of 1.0 nM PRMT5-MEP50, 75 nM biotinylated-peptide, and 15 μM SAM. Methylation reactions were allowed to proceed for 150 minutes in a sealed plate at 37° C. Reactions were immediately quenched by the addition of 1 μL of 5% formic acid. A plate was then frozen and shipped to SAMDI™ Tech Inc. to determine the percent conversion from H4R3(Me1) to H4R3(Me2). Dose-response curves were generated by plotting percent effect (% product conversion; Y-axis) vs. Log 10 compound concentrations (X-axis). EC50 values were determined by non-linear regression according to models for either sigmoidal (4 parameters) or biphasic (7 parameters) dose-response curves.

[3] = second value of 7 parameter biphasic fit, read-out: Enzyme Methylation Assay Version A (EC50 2)
[4] = single EC50 = 4 parameter single site sigmoidal fit, EC50 1 = first value of 7 parameter biphasic fit, read-out: Enzyme Methylation Assay Version A (EC50 or EC50 1)

T1 sequence (O14744 whole entry): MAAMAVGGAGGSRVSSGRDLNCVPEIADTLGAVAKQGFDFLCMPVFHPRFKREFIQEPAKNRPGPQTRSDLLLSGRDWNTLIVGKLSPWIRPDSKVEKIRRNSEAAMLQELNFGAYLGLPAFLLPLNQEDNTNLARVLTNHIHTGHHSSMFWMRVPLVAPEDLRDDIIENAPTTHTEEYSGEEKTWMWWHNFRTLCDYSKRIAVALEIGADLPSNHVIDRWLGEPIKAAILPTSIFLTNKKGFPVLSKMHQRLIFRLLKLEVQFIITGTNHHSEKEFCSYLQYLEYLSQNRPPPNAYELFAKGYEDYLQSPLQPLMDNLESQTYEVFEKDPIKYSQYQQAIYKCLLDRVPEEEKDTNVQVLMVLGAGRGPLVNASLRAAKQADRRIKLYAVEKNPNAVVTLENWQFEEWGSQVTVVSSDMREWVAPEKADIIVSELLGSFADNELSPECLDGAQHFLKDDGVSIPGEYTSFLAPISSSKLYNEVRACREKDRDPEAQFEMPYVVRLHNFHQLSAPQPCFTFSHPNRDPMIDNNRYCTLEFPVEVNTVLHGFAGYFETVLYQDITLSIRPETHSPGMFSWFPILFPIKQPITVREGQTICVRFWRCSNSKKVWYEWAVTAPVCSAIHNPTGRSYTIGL
T1 sequence (Q9BQA1 whole entry partner): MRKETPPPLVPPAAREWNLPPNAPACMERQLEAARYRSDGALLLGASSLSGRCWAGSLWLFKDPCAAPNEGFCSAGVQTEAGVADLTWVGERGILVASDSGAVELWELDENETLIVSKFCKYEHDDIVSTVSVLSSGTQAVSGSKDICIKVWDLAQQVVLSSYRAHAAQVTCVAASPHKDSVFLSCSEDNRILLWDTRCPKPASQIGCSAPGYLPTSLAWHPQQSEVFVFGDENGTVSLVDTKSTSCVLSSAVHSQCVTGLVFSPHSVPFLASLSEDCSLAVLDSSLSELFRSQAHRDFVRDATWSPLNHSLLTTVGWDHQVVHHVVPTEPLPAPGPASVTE

| Compound | EC50 [1] | EC50 [2, 3] | EC50 [2, 4] | EC50 ([1]; Homo sapiens, MCF7, 72 h) |
| --- | --- | --- | --- | --- |
| COC(C)c1ccc2nc(C(=O)N3CC[C@]4(Cc5ccccc5CN4)[C@H](O)C3)cn2c1 (single isomer, unassigned) [Example 22, ((3R,3’R)-3′-hydroxy-1,4-dihydro-2H-spiro[isoquinoline-3,4′-piperidin]-1′-yl)(6-((S or R)-1-methoxyethyl)imidazo[1,2-a]pyridin-2-yl)methanone] | 16.8 nM | 439 nM | 0.674 nM |  |
| COC(C)c1ccc2nc(C(=O)N3CC[C@]4(Cc5ccccc5CN4)[C@H](O)C3)cn2c1 (single isomer, unassigned) [Example 23, ((3R,3’R)-3′-hydroxy-1,4-dihydro-2H-spiro[isoquinoline-3,4′-piperidin]-1-yl)(6-((R or S)-1-methoxyethyl)imidazo[1,2-a]pyridin-2-yl)methanone] | 46.4 nM | 851 nM | 1.8 nM |  |
| O=C(c1cn2cc(Br)cc(C(O)C(F)(F)F)c2n1)N1CC[C@]2(Cc3ccccc3CN2)[C@H](O)C1 (single isomer, unassigned) [Example 30, (6-bromo-8-((R or S)-2,2,2-trifluoro-1-hydroxyethyl)imidazo[1,2-a]pyridin-2-yl)((3R,3’R)-3′-hydroxy-1,4-dihydro-2H-spiro[isoquinoline-3,4′-piperidin]-1′-yl)methanone] |  | 99.4 nM | 0.584 nM | 3.62 nM |
| O=C(c1cn2cc(Br)cc(C(O)C(F)(F)F)c2n1)N1CC[C@]2(Cc3ccccc3CN2)[C@H](O)C1 (single isomer, unassigned) [Example 31, (6-bromo-8-((S or R)-2,2,2-trifluoro-1-hydroxyethyl)imidazo[1,2-a]pyridin-2-yl)((3R,3’R)-3′-hydroxy-1,4-dihydro-2H-spiro[isoquinoline-3,4′-piperidin]-1′-yl)methanone] | 4.49 nM | 72.4 nM | 0.215 nM |  |
| CC(O)c1cc(Br)cn2cc(C(=O)N3CC[C@]4(Cc5ccccc5CN4)[C@H](O)C3)nc12 (single isomer, unassigned) [Example 32, (6-bromo-8-((R or S)-1-hydroxyethyl)imidazo[1,2-a]pyridin-2-yl)((3R,3’R)-3′-hydroxy-1,4-dihydro-2H-spiro[isoquinoline-3,4′-piperidin]-1′-yl)methanone] |  | 282 nM | 0.844 nM | 5.15 nM |
| CC(O)c1cc(Br)cn2cc(C(=O)N3CC[C@]4(Cc5ccccc5CN4)[C@H](O)C3)nc12 (single isomer, unassigned) [Example 33, (6-bromo-8-((S or R)-1-hydroxyethyl)imidazo[1,2-a]pyridin-2-yl)((3R,3’R)-3′-hydroxy-1,4-dihydro-2H-spiro[isoquinoline-3,4′-piperidin]-1′-yl)methanone] | 3.71 nM | 215 nM | 0.565 nM |  |
| COC(C)c1cc(Br)c2nc(C(=O)N3CC[C@]4(Cc5ccccc5CN4)[C@H](O)C3)cn2c1 (single isomer, unassigned) [Example 60] | 7.49 nM | 271 nM | 0.456 nM |  |
| COC(C)c1cc(Br)c2nc(C(=O)N3CC[C@]4(Cc5ccccc5CN4)[C@H](O)C3)cn2c1 (single isomer, unassigned) [Example 61] | 16.9 nM | 422 nM | 0.669 nM |  |
| CC1CC1c1cnc2nc(C(=O)N3CC[C@]4(Cc5ccccc5CN4)[C@H](O)C3)cn2c1 (single isomer, unassigned) [Example 74] | 8.37 nM |  | 13.9 nM |  |
| O=C(c1cn2cc(C3CC3(F)F)cnc2n1)N1CC[C@]2(Cc3ccccc3CN2)[C@H](O)C1 (single isomer, unassigned) [Example 75] |  | 112 nM | 1.66 nM | 27.5 nM |
| CC1CC1c1cnc2nc(C(=O)N3CC[C@]4(Cc5ccccc5CN4)[C@H](O)C3)cn2c1 (single isomer, unassigned) [Example 76] | 4.02 nM | 73.3 nM | 0.983 nM |  |
| O=C(c1cn2cc(C3CC3(F)F)cnc2n1)N1CC[C@]2(Cc3ccccc3CN2)[C@H](O)C1 (single isomer, unassigned) [Example 77] | 23.8 nM | 108 nM | 1.46 nM |  |
| COC(C)c1cc(C(F)F)cn2cc(C(=O)N3CC[C@]4(Cc5ccccc5CN4)[C@H](O)C3)nc12 (single isomer, unassigned) [Example 80] | 8.38 nM |  | 1.25 nM |  |
| COC(C)c1cc(C(F)F)cn2cc(C(=O)N3CC[C@]4(Cc5ccccc5CN4)[C@H](O)C3)nc12 (single isomer, unassigned) [Example 81] | 25 nM |  | 3.81 nM |  |
| N#CC1(c2cnc3nc(C(=O)N4CC[C@]5(Cc6ccccc6CN5)[C@H](O)C4)cn3c2)CC12CC2 (single isomer, unassigned) [Example 82] | 7.75 nM |  | 0.746 nM |  |
| N#CC1(c2cnc3nc(C(=O)N4CC[C@]5(Cc6ccccc6CN5)[C@H](O)C4)cn3c2)CC12CC2 (single isomer, unassigned) [Example 83] | 90.8 nM | 3160 nM | 3.28 nM |  |
| CN1CCC(Oc2nc(Br)cn3cc(C(=O)N4CC[C@]5(Cc6ccccc6CN5)[C@H](O)C4)nc23)C1=O (single isomer, unassigned) [Example 94, (R or S)-3-((6-bromo-2-((3R,3′R)-3′-hydroxy-1,4-dihydro-2H-spiro[isoquinoline-3,4′-piperidine]-1′-carbonyl)imidazo[1,2-a]pyrazin-8-yl)oxy)-1-methylpyrrolidin-2-one] |  | 316 nM | 0.826 nM | 19.7 nM |
| CN1CCC(Oc2nc(Br)cn3cc(C(=O)N4CC[C@]5(Cc6ccccc6CN5)[C@H](O)C4)nc23)C1=O (single isomer, unassigned) [Example 95, (R or S)-3-((6-bromo-2-((3R,3′R)-3′-hydroxy-1,4-dihydro-2H-spiro[isoquinoline-3,4′-piperidine]-1′-carbonyl)imidazo[1,2-a]pyrazin-8-yl)oxy)-1-methylpyrrolidin-2-one] | 28.7 nM | 468 nM | 1.01 nM |  |
| O=C(c1cn2cc(Br)nc(OC3CCOC3)c2n1)N1CC[C@]2(Cc3ccccc3CN2)[C@H](O)C1 (single isomer, unassigned) [Example 98, (6-bromo-8-(((S or R)(tetrahydrofuran-3-yl)oxy)imidazo[1,2-a]pyrazin-2-yl)((3R,3′R)-3′-hydroxy-1,4-dihydro-2H-spiro[isoquinoline-3,4′-piperidin]-1′-yl)methanone] |  | 104 nM | 0.191 nM | 6.86 nM |
